Target: T1, modified thermophilic polymerase (Therminator 3, from New England BioLabs) (Thermococcus sp., UniProt Q56366, D141A/E143A/L408S/P410V/Y409A)
T1 construct: purchased New England BioLabs
Assay: Incorporation of 3′-terminated nucleotides by a modified thermophilic polymerase
Type: biochemical, Thermococcus sp. 9 degrees N-7
Conditions: pH 8.5, nucleotides at 200 nM, 4 mM Mg, 55° C.; polymerase pre-bound to primed DNA template
Text: Another important property of a nucleotide with a reversible terminator (e.g., 3′ cleavable moiety as described herein) is the ability to be rapidly incorporated by a DNA polymerase. Naturally occurring DNA polymerases are typically not capable of incorporating nucleotides modified with reversible terminator (e.g., 3′ cleavable moiety as described herein) at the 3′ position on the ribose of the nucleotide. As known in the art, a number of thermophilic polymerases have been engineered to enable the incorporation of nucleotides modified with 3′ terminators. […] The reaction was carried out in a buffered solution at pH 8.5, with nucleotides at 200 nM concentration, 4 mM Mg, at a temperature of 55° C. The polymerase was pre-bound to the primed DNA template. All three terminated nucleotides are efficiently incorporated by the modified DNA polymerase. The polymerase can be further modified for desired properties such as incorporation rate and accuracy.

T1 sequence (Q56366 whole entry D141A/E143A/L408S/Y409A/P410V): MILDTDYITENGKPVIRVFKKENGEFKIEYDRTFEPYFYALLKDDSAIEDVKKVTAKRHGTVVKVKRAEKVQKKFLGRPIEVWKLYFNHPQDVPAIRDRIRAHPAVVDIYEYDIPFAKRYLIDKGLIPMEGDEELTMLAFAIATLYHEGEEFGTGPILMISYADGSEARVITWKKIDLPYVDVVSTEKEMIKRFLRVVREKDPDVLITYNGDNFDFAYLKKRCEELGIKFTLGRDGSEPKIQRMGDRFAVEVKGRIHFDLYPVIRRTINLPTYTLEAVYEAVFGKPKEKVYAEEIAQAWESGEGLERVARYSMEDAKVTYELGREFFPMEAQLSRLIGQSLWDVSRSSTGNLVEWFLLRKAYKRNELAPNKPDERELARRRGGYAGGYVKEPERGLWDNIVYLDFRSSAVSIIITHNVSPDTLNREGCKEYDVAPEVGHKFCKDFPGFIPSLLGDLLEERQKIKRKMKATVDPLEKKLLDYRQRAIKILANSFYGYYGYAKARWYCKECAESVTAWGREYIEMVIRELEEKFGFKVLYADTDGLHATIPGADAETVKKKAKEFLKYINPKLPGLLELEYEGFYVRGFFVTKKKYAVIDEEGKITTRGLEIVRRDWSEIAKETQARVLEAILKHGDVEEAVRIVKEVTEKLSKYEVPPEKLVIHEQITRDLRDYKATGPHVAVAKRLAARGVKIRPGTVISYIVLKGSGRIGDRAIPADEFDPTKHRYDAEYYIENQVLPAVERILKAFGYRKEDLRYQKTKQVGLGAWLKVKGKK

In the case of CSSCOC1CC(n2cc(C)c(=O)[nH]c2=O)OC1COP(=O)(O)OP(=O)(O)OP(=O)(O)O (stereo not shown) [RT #1, 3′O—CH2—S—S—CH3], the Incorporation half-time is reported as 14 ± 3 s.
